Data from PubChem BioAssay AID330 (DTP/NCI, 2004).
Several values for one entry are separate records, joined by “and”; a condition that tells them apart may be missing. Equal entries are not always repeated. Inconclusive results and toxic doses are left out. The calls were made as follows: active = survival T/C of 150% or more; inactive = T/C below 125% in these data.

Test system: P388 leukemia ip, CD2F1 mice, survival T/C
Assay: NCI In Vivo Anticancer Drug Screen. Data for tumor model P388 Leukemia (intraperitoneal) in CD2F1 (CDF1) mice
Details: endpoint: median survival time, higher = longer survival
In short: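 Mice carrying the transplanted tumor received test compound or vehicle. Survival was recorded in each group, and the value is the treated-group measurement divided by that of the vehicle-treated control group.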

[1] = dose: 25.0 mg/kg/injection, schedule: Q01DX009 (ip), vehicle: saline with Tween-80
[2] = dose: 50.0 mg/kg/injection, schedule: Q01DX009 (ip), vehicle: saline with Tween-80
[3] = dose: 50.0 mg/kg/injection, schedule: Q01DX009 (ip), vehicle: Klucel (hydroxypropylcellulose) (HPC)
[4] = dose: 100.0 mg/kg/injection, schedule: Q01DX009 (ip), vehicle: Klucel (hydroxypropylcellulose) (HPC)
[5] = dose: 60.0 mg/kg/injection, schedule: Q01DX005 (ip), vehicle: saline with Tween-80
[6] = dose: 120.0 mg/kg/injection, schedule: Q01DX005 (ip), vehicle: saline with Tween-80
[7] = dose: 50.0 mg/kg/injection, schedule: Q01DX005 (ip), vehicle: Klucel (hydroxypropylcellulose) (HPC)
[8] = dose: 100.0 mg/kg/injection, schedule: Q01DX005 (ip), vehicle: Klucel (hydroxypropylcellulose) (HPC)
[9] = dose: 200.0 mg/kg/injection, schedule: Q01DX005 (ip), vehicle: Klucel (hydroxypropylcellulose) (HPC)
[10] = dose: 100.0 mg/kg/injection, schedule: Q01DX009 (ip), vehicle: saline with Tween-80
[11] = dose: 240.0 mg/kg/injection, schedule: Q01DX005 (ip), vehicle: saline with Tween-80
[12] = dose: 200.0 mg/kg/injection, schedule: Q01DX009 (ip), vehicle: Klucel (hydroxypropylcellulose) (HPC)
[13] = dose: 100.0 mg/kg/injection, schedule: Q04DX002 (ip), vehicle: Klucel (hydroxypropylcellulose) (HPC)
[14] = dose: 200.0 mg/kg/injection, schedule: Q04DX002 (ip), vehicle: Klucel (hydroxypropylcellulose) (HPC)
[15] = dose: 400.0 mg/kg/injection, schedule: Q04DX002 (ip), vehicle: Klucel (hydroxypropylcellulose) (HPC)
[16] = dose: 6.25 mg/kg/injection, schedule: Q04DX003 (ip), vehicle: saline
[17] = dose: 12.5 mg/kg/injection, schedule: Q04DX003 (ip), vehicle: saline
[18] = dose: 25.0 mg/kg/injection, schedule: Q04DX003 (ip), vehicle: saline
[19] = dose: 50.0 mg/kg/injection, schedule: Q01DX009 (ip), vehicle: saline
[20] = dose: 100.0 mg/kg/injection, schedule: Q01DX009 (ip), vehicle: saline
[21] = dose: 200.0 mg/kg/injection, schedule: Q01DX009 (ip), vehicle: saline
[22] = dose: 100.0 mg/kg/injection, schedule: Q01DX001 (ip), vehicle: saline with Tween-80
[23] = dose: 100.0 mg/kg/injection, schedule: Q01DX001 (ip), vehicle: Klucel (hydroxypropylcellulose) (HPC)
[24] = dose: 400.0 mg/kg/injection, schedule: Q01DX001 (ip), vehicle: Klucel (hydroxypropylcellulose) (HPC)
[25] = dose: 12.5 mg/kg/injection, schedule: Q01DX009 (ip), vehicle: saline
[26] = dose: 200.0 mg/kg/injection, schedule: Q01DX009 (ip), vehicle: saline with Tween-80

Measured: T/C

O=[N+]([O-])/C=C\c1cc2c3c(c1)CCCN3CCC2
inactive: dose: 12.5 mg/kg/injection, schedule: Q01DX009 (ip), vehicle: saline with Tween-80 100 % of control | [1] 109 % of control | [2] 109 % of control

CCCC1(CC(=O)O)OCCc2c1[nH]c1ccccc21 (stereo unspecified)
inactive: [3] 102 % of control | [4] 108 % of control

CN(C)c1ccc(/C=C(\NC(=O)c2ccccc2)c2nc3ccccc3s2)cc1
inactive: [5] 105 % of control | [6] 116 % of control | dose: 200.0 mg/kg/injection, schedule: Q01DX005 (ip), vehicle: saline with Tween-80 106 % of control

Cc1ccsc1C(=O)c1ccccc1
inactive: [7] 99 % of control | [8] 94 % of control | [9] 96 % of control

CC(O)(CC(=O)O)CC(=O)O
inactive: dose: 25.0 mg/kg/injection, schedule: Q01DX005 (ip), vehicle: water 101 % of control | dose: 50.0 mg/kg/injection, schedule: Q01DX005 (ip), vehicle: water 100 % of control | dose: 100.0 mg/kg/injection, schedule: Q01DX005 (ip), vehicle: water 95 % of control | dose: 200.0 mg/kg/injection, schedule: Q01DX005 (ip), vehicle: water 90 % of control | dose: 400.0 mg/kg/injection, schedule: Q01DX005 (ip), vehicle: water 92 % of control

O=C(CI)NCCNc1cccc2c(S(=O)(=O)O)cccc12
inactive: [1] 102 % of control | [2] 100 % of control | [10] 110 % of control and 95 % of control

O=C(NCc1ccco1)Nc1ccccc1C(F)(F)F
inactive: [5] 94 % of control | [6] 99 % of control | [11] 90 % of control

O=S(=O)(NCCSSCCNS(=O)(=O)c1ccc(Cl)cc1)c1ccc(Cl)cc1
inactive: [3] 92 % of control | [4] 91 % of control | [12] 88 % of control

C/C(=N\NC(=O)c1ccccc1)C(=O)O
inactive: [13] 106 % of control | [14] 100 % of control | [15] 99 % of control

C[CH2][Sn]([F])([F])[CH2]C
inactive: [16] 107 % of control | [17] 108 % of control | [18] 116 % of control

Cc1cccc(N=Cc2ccc(C=Nc3cccc(C)c3C)cc2)c1C
inactive: [3] 92 % of control | [4] 91 % of control | [12] 86 % of control

C=C(C)c1nc(N)nc(NC)n1
inactive: [13] 98 % of control | [14] 107 % of control | [15] 98 % of control

[CH3][Sn]([CH3])([N]=C=S)[N]=C=S.c1ccc(-c2nnc(-c3ccccn3)nc2-c2ccccc2)cc1
inactive: dose: 60.0 mg/kg/injection, schedule: Q01DX005 (ip), vehicle: Klucel (hydroxypropylcellulose) (HPC) 100 % of control | dose: 120.0 mg/kg/injection, schedule: Q01DX005 (ip), vehicle: Klucel (hydroxypropylcellulose) (HPC) 104 % of control

C/C=C/C[P+](C)(c1ccccc1)c1ccccc1
inactive: dose: 0.75 mg/kg/injection, schedule: Q01DX009 (ip), vehicle: saline 104 % of control

S=C(Nc1cc(Cl)cc(Cl)c1)SCc1ccccc1
inactive: [19] 100 % of control | [20] 99 % of control | [21] 107 % of control

O=C1Nc2ccccc2C1NC(=S)Nc1ccc(Cl)cc1 (stereo unspecified)
inactive: [22] 87 % of control | dose: 200.0 mg/kg/injection, schedule: Q01DX001 (ip), vehicle: saline with Tween-80 86 % of control

CCN(CC)c1ccc(C(NCC2CCCCO2)C(Cl)(Cl)Cl)cc1 (stereo unspecified)
inactive: dose: 50.0 mg/kg/injection, schedule: Q01DX005 (ip), vehicle: saline 117 % of control | dose: 100.0 mg/kg/injection, schedule: Q01DX005 (ip), vehicle: saline 102 % of control | dose: 200.0 mg/kg/injection, schedule: Q01DX005 (ip), vehicle: saline 100 % of control

[C-]#[N+]C(C)Cc1ccccc1 (stereo unspecified)
inactive: dose: 1.56 mg/kg/injection, schedule: Q04DX003 (ip), vehicle: saline 101 % of control | dose: 3.13 mg/kg/injection, schedule: Q04DX003 (ip), vehicle: saline 103 % of control | [16] 103 % of control | [17] 105 % of control | [18] 104 % of control

CC(=O)OCCNc1n[nH]c(=O)c2ccncc12
inactive: dose: 30.0 mg/kg/injection, schedule: Q01DX005 (ip), vehicle: saline with Tween-80 95 % of control | [5] 93 % of control | [6] 101 % of control | [11] 113 % of control

CC(O)CC1(c2ccccc2)CNC(=O)NC1=O (stereo unspecified)
inactive: dose: 25.0 mg/kg/injection, schedule: Q01DX001 (ip), vehicle: Klucel (hydroxypropylcellulose) (HPC) 94 % of control | dose: 50.0 mg/kg/injection, schedule: Q01DX001 (ip), vehicle: Klucel (hydroxypropylcellulose) (HPC) 94 % of control | [23] 99 % of control and 106 % of control | [24] 92 % of control

CCCCCCCCCCCCCCCC[N+](C)(C)CCN
inactive: [25] 93 % of control | dose: 25.0 mg/kg/injection, schedule: Q01DX009 (ip), vehicle: saline 99 % of control | [19] 106 % of control

C/C(=N\N=C(/[Se])N1CCC1)c1ccccn1
inactive: dose: 12.5 mg/kg/injection, schedule: Q04DX003 (ip), vehicle: Klucel (hydroxypropylcellulose) (HPC) 106 % of control | dose: 25.0 mg/kg/injection, schedule: Q04DX003 (ip), vehicle: Klucel (hydroxypropylcellulose) (HPC) 104 % of control

O=[N+]([O-])c1ccc(COc2ccccc2)cc1
inactive: dose: 100.0 mg/kg/injection, schedule: Q01DX001 (ip), vehicle: saline 104 % of control | dose: 200.0 mg/kg/injection, schedule: Q01DX001 (ip), vehicle: saline 113 % of control | dose: 400.0 mg/kg/injection, schedule: Q01DX001 (ip), vehicle: saline 124 % of control

CC(C)(C)C(CCC(=O)O)CC(=O)O (stereo unspecified)
inactive: [2] 100 % of control | [10] 95 % of control | dose: 100.0 mg/kg/injection, schedule: Q04DX003 (ip), vehicle: saline 95 % of control | [26] 100 % of control | dose: 200.0 mg/kg/injection, schedule: Q04DX003 (ip), vehicle: saline 91 % of control

CCN(CC)c1c(C)nnc2c3cccnc3nn12
inactive: dose: 25.0 mg/kg/injection, schedule: Q01DX001 (ip), vehicle: saline with Tween-80 100 % of control | dose: 50.0 mg/kg/injection, schedule: Q01DX001 (ip), vehicle: saline with Tween-80 103 % of control | [22] 106 % of control and 97 % of control

N=Cc1c(O)n(C2CCCCC2)c(=O)n(C2CCCCC2)c1=O
inactive: [10] 100 % of control | [26] 95 % of control | dose: 400.0 mg/kg/injection, schedule: Q01DX009 (ip), vehicle: saline with Tween-80 100 % of control

[CH3][Sn]([CH3])([Cl])[CH2]CC[CH2][Sn]([Cl])([Cl])[Cl]
inactive: dose: 6.25 mg/kg/injection, schedule: Q01DX009 (ip), vehicle: saline 110 % of control | [25] 99 % of control

O=C(Nc1ccc(O)c2c1C(=O)c1ccccc1C2=O)Oc1ccccc1
inactive: [7] 101 % of control | [8] 102 % of control | [9] 99 % of control

NC(=O)c1cn(CCO)nc1[N+](=O)[O-]
inactive: [19] 100 % of control | [20] 100 % of control | [21] 119 % of control

Cc1ccc(S(=O)(=O)N/N=C/c2c(-c3ccccc3)nc3n2CCS3)cc1
inactive: [23] 99 % of control | dose: 200.0 mg/kg/injection, schedule: Q01DX001 (ip), vehicle: Klucel (hydroxypropylcellulose) (HPC) 93 % of control | [24] 94 % of control
